Earlier results in patent EP1096056A1, “Wrinkle resistant composition” (THE PROCTER & GAMBLE COMPANY, priority 1999, dated 2001).
Counter-ions that a name gives are not always drawn.

What was measured:
[1] = in water

water solubility [1] | SMILES | stability over a wide pH range
about 1.8% | [H]/N=C(\N/C(=N/[H])NCCCCCCNC(=N)NC(=N)Nc1ccc(Cl)cc1)Nc1ccc(Cl)cc1 [diacetate salt, 1,1'-hexamethylene bis(5-(p-chlorophenyl)biguanide)] | –
about 70% | [H]/N=C(\N/C(=N/[H])NCCCCCCNC(=N)NC(=N)Nc1ccc(Cl)cc1)Nc1ccc(Cl)cc1 [digluconate salt, 1,1'-hexamethylene bis(5-(p-chlorophenyl)biguanide)] | –

Second part, the molecule before the results:

SMILES | water solubility [1] | stability over a wide pH range
Cn1sc2c(c1=O)CCC2 [Promexal, 2-methyl-4,5-trimethylene-4-isothiazolin-3-one] | – | 4-12
O=c1[nH]sc2ccccc12 [Proxel, 1,2-benzisothiazolin-3-one] | – | 4-12
[Na+].[O-][n+]1ccccc1[S-] [sodium pyrithione] | about 50% | –
